Laboratory results from patent US4235902A, “Pesticidal carbamate esters of 5-oximino-1,3-oxazolidin-4-ones” (priority 1976, dated 1980).

What was measured:
[1] = test system: Mexican bean beetle (Epilachna varivestis, Muls.); experiment: Mexican bean beetle leaf spray test; format: in vivo; set-up: key: A: excellent control; B: partial control; C: no control; details: 500 parts per million, fourth instar larvae, three days
Experimental: (§1) Suspensions of the test compounds were prepared by dissolving one gram of compound in 50 milliliters of acetone in which had been dissolved 0.1 gram (10 percent of the weight of compound) of an alkylphenoxy polyethoxyethanol surfactant, as an emulsifying or dispersing agent. The resulting solution was mixed into 150 milliliters of water to give roughtly 200 milliliters of a suspension containing the compound in finely divided form. The thus-prepared stock suspension contained 0.5 percent by weight of compound. The test concentrations in parts per million by weight employed in the tests described hereinbelow were obtained by appropriate dilutions of the stock suspension with water. The test procedures were as follows:
MEXICAN BEAN BEETLE LEAF SPRAY TEST
Fourth instar larvae of the Mexican bean beetle (Epilachna varivestis, Muls.), reared on Tendergreen bean plants at a temperature of 80±5° F. and 50±5 per cent relative humidity, were the test insects.
The test compounds were formulated by diluting the stock suspension with water to give a suspension containing 500 parts of test compound per million parts of final formulation. Potted Tendergreen bean plants of standard height and age were placed on a revolving turntable and sprayed with 100-110 milliliters of test compound formulation by use of a DeVilbiss spray gun set at 10 psig air pressure. This application, which lasted 25 seconds, was sufficient to wet plants to run-off. As a control 100-110 milliliters of a water-acetone-emulsifier solution containing no test compound were also sprayed on infested plants. When dry, the paired leaves were separated and each was placed in a 9 centimeter Petri dish lined with moistened filter paper. Five randomly selected larvae were introduced into each dish, and the dishes were closed. The closed dishes were labeled and held at a temperature of 80±5° F. for three days. Although the larvae could easily consume the leaf within 24 to 48 hours, no more food was added. Larvae which were unable to move the length of the body, even upon stimulation, were considered dead.
(§2) In these tests the pesticidal activity of the compounds against aphid, mite, Southern Armyworm, Mexican Bean Beetle, nematodes and house fly was rated as follows: […]

[2] = Acute oral (peroral) toxicity to mammals; details: in vivo, rat, mortality rate of 50 percent
Experimental: Certain of these compositions were also evaluated to determine their peroral toxicity to mammals. The animal selected for this experiment was the rat. The test results obtained are expressed in terms of the number of milligrams of compositions per kilogram of weight of the animal required to achieve a mortality rate of 50 percent (LD50).

[3] = test system: two-spotted mite (Tetranychus urticae Koch); experiment: Mite foliage spray test; format: in vivo; set-up: key: A: excellent control; B: partial control; C: no control; details: 500 parts per million, six days
Experimental: as §1
Adults and nymphal stages of the two-spotted mite (Tetranychus urticae Koch), reared on Tendergreen bean plants at 80±5 per cent relative humidity, were the test organisms. Infested leaves from a stock culture were placed on the primary leaves of two bean plants six to eight inches in height, growing in a two-and-a-half inch clay pot. 150-200 Mites, a sufficient number for testing, transferred from the excised leaves to the fresh plants in a period of twenty four hours. Following the twenty four hour transfer period, the excised leaves were removed from the infested plants. The test compounds were formulated by diluting the stock suspension with water to give a suspension containing 500 parts of test compound per million parts of final formulation. The potted plants (one pot per compound) were placed on a revolving turntable and sprayed with 100-110 milliliters of test compound formulation by use of a DeVilbiss spray gun set at 40 psig. air pressure. This application, which lasted 25 seconds, was sufficient to wet the plants to run-off. As a control, 100-110 milliliteres of a water solution containing acetone and emulsifier in the same concentrations as the test compound formulation, but containing no test compound, were also sprayed on infested plants. The sprayed plants were held at 80±5 per cent relative humidity for six days, after which a mortality count of motile forms was made. Microscopic examination for motile forms was made on the leaves of the test plants. Any individual which was capable of locomotion upon prodding was considered living.
as §2

[4] = test system: house flies (Musca domestica, L.); experiment: Fly bait test; format: in vivo; set-up: key: A: excellent control; B: partial control; C: no control; details: 500 parts per million in sugar bait; twenty four hours
Experimental: as §1
Four to six day old adult house flies (Musca domestica, L.), reared according to the specifications of the Chemical Specialities Manufacturing Association (Blue Book, McNair-Dorland Co., N. Y. 1954; pages 243-244, 261) under controlled conditions of 80±5° F. and 50±5 per cent relative humidity, were the test insects. The flies were immobilized by anesthetizing with carbon dioxide and twenty five immobilized individuals, males and females, were transferred to a cage consisting of a standard food strainer about five inches in diameter which was inverted over a wrapping-paper-covered surface. The test compounds were formulated by diluting the stock suspension with a 10 per cent (by weight) sugar solution to give a suspension containing 500 parts of test compound per million parts of final formulation, by weight. Ten milliliters of the test formulation were added to a souffle cup containing a one-inch square of an absorbent cotton pad. This bait cup was introduced and centered on the blotting paper under the food strainer prior to admitting the anesthetized flies. The caged flies were allowed to feed on the bait for twenty four hours, at a temperature of 80±5° F. and the relative humidity of 50±5 per cent.
as §2

[5] = test system: bean aphid (Aphis fabae Scop.); experiment: Bean aphid foliage spray test; format: in vivo; set-up: key: A: excellent control; B: partial control; C: no control; details: 500 parts per million, 24 hour
Experimental: as §1
BEAN APHID FOLIAGE SPRAY TEST
Adults and nymphal stages of the bean aphid (Aphis fabae Scop.) reared on potted dwarf nasturtium plants at 64°-70° F. and 50-70 per cent relative humidity, constituted the test insects. For testing purposes, the number of aphids per pot was standardized to 100-150 by trimming plants containing excess aphids.
The test compounds were formulated by diluting the stock suspension with water to give a suspension containing 500 parts of test compound per million parts of final formulation.
The potted plants (one pot per compound tested) infested with 100-150 aphids, were placed on a revolving turntable and sprayed with […] of test compound formulation by use of a DeVilbiss spray gun set at 40 psig. air pressure. This application, which lasted 25 seconds, was sufficient to wet the plants to run-off. As a control, 100-110 milliliters of a water-acetone-emulsifier solution containing no test compound were also sprayed on infested plants. After spraying, the pots were placed on their sides on a sheet of white standard mimeograph paper which had been previously ruled to facilitate counting. Temperature and humidity in the test room during the 24 hour holding period were 65°-70° F. and 50-70 per cent, respectively. Aphids which fell onto the paper and were unable to remain standing after being uprighted were considered dead. Aphids remaning on the plants were observed closely for movement and those which were unable to move the length of the body upon stimulation by prodding were considered dead. Per cent mortality was recorded for various concentration levels.
as §2

[6] = test system: southern armyworm (Prodenia eridania, (Cram.)); experiment: Southern armyworm leaf spray test; format: in vivo; set-up: key: A: excellent control; B: partial control; C: no control; details: 500 parts per million, larvae, three days
Experimental: as §1
SOUTHERN ARMYWORM LEAF SPRAY TEST
Larvae of the southern armyworm (Prodenia eridania, (Cram.)), reared on Tendergreen bean plants at a temperature of 80±5° F. and a relative humidity of 50±5 per cent, constituted the test insects.
The test compounds were formulated by diluting the stock suspension with water to give a suspension containing 500 parts of test compound per million parts of final formulation. Potted Tendergreen bean plants of standard height and age were placed on a revolving turntable and sprayed with 100-110 milliliters of test compound formulation by use of a DeVilbiss spray gun set at 10 psig air pressure. This application, which lasted 25 seconds, was sufficient to wet plants to run-off. As a control, 100-110 milliliters of a water-acetone-emulsifier solution containing no test compound were also sprayed on infested plants. When dry, the paired leaves were separated and each one was placed in a 9 centimeter Petri dish lined with moistened filter paper. Five randomly selected larvae were introduced into each dish and the dishes were closed. The closed dishes were labeled and held at 80°-85° F. for three days. Although the larvae could easily consume the whole leaf within twenty-four hours, no more food was added. Larvae which were unable to move the length of the body, even upon stimulation by prodding, were considered dead. Per cent mortality was recorded for various concentration levels.
as §2

[7] = test system: root-knot nematode, Meloidogyne incognita var. acrita; experiment: Nematocide test; format: in vivo; set-up: key: A: excellent control; B: partial control; C: no control; details: 3.33 m.g. per jar; galling of cucumber roots rated after approximately 3 weeks
Experimental: The test organism used was the infective migratory larvae of the root-knot nematode, Meloidogyne incognita var. acrita, reared in the greenhouse on roots of cucumber plants. Infected plants were removed from the culture, and the roots are chopped very finely. A small amount of this inoculum was added to a pint jar containing approximately 180 cc. of soil. The jars were capped and incubated for one week at room temperature. During this period eggs of the nematode were hatched, and the larval forms migrated into the soil.
Ten ml. of the test formulation were added to each of the two jars for each dosage tested. Following the addition of chemical, the jars were capped, and the contents thoroughly mixed on a ball mill for 5 minutes.
The test compounds were formulated by a standard procedure of solution in acetone addition of an emulsifier, and dilution with water. Primary screening tests were conducted at 3.33 m.g. of the test compound per jar.
The jars were left capped at room temperature for a period of 48 hours, and the contents then transferred to 3 inch pots. Subsequently, the pots were seeded to cucumber as an indicator crop and placed in the greenhouse where they were cared for in the normal fashion for approximately 3 weeks.
The cucumber plants were then taken from the pots, the soil removed from the roots, and the amount of galling visually rated.
as §2

| SMILES | Biological Activity: Bean Beetle [1] | LD50 [2] [mg/kg] | Biological Activity: Mite [3] | Biological Activity: Housefly [4] | Biological Activity: Aphid [5] | Biological Activity: Southern Army Worm [6] | Biological Activity: Nematode [7] |
| --- | --- | --- | --- | --- | --- | --- | --- |
| CNC(=O)ON=C1OCC(C)(C)N(C)C1=O | A | 126 | A | A | A | C | A |
| CCC1COC(=NOC(=O)NC)C(=O)N1C (centres unmarked) | C | 23.8 | A | A | A | A | C |
| CCC1COC(=NOC(=O)N(C)SC(Cl)(Cl)Cl)C(=O)N1C (centres unmarked) | A | – | A | A | A | C | A |
| CCN1CCOC(=NOC(=O)NC)C1=O | C | – | A | A | A | C | C |
| CNC(=O)ON=C1OCCN(C(C)C)C1=O | C | – | C | A | A | C | – |
| CCCN1CCOC(=NOC(=O)NC)C1=O | B | – | A | A | A | A | C |
| CNC(=O)ON=C1OC(C)CN(C)C1=O (centres unmarked) [2-Methylcarbamoyloximino-4,-6-dimethyltetrahydro-1,4-oxazin-3-one] | A | – | A | A | A | A | A |
| CNC(=O)ON=C1OCCN(C)C1=O [2-Methylcarbamoyloximino-4-methyltetrahydro1,4-oxazin-3-one] | A | 343 | A | A | A | A | A |
| CN(SC(Cl)(Cl)Cl)C(=O)ON=C1OCC(C)(C)N(C)C1=O [2-[N-Trichloromethanesulfenyl-N-methyl/carbamoyloximino]-4,5,5-trimethyltetrahydro, -1,4-oxazin-3-one] | B | 794 | A | A | A | C | – |
| CN1CCOC(=NOC(=O)N(C)SC(Cl)(Cl)Cl)C1=O [2-[N-Trichloromethanesulfenyl-N-methylcarbamoyloximino]-4-methyltetrahydro-1,4-oxazin-3-one] | A | – | B | A | A | C | A |
